Columns and labels:
[1] = system: MCF-10A; experiment: cells; details: Homo sapiens
Description: Antiproliferation activity against human MCF-10A cells assessed as reduction in cell viability under hypoxic conditions by MTT assay

[2] = target: Carbonic anhydrase 9 (Homo sapiens, UniProt Q16790); experiment: Inhibition of recombinant human carbonic anhydrase 9 by stopped-flow CO2 hydration assay
[3] = system: MCF7; experiment: Antiproliferation activity against human MCF7 cells assessed as reduction in cell viability under hypoxic conditions by MTT assay
[4] = target: Carbonic anhydrase 4 (Homo sapiens, UniProt P22748); experiment: Inhibition of recombinant human carbonic anhydrase 4 by stopped-flow CO2 hydration assay
[5] = target: Carbonic anhydrase 2 (Homo sapiens, UniProt P00918); experiment: Inhibition of recombinant human carbonic anhydrase 2 by stopped-flow CO2 hydration assay
[6] = target: Carbonic anhydrase 1 (Homo sapiens, UniProt P00915); experiment: Inhibition of recombinant human carbonic anhydrase 1 by stopped-flow CO2 hydration assay
Sequence of Carbonic anhydrase 1 (P00915 whole entry): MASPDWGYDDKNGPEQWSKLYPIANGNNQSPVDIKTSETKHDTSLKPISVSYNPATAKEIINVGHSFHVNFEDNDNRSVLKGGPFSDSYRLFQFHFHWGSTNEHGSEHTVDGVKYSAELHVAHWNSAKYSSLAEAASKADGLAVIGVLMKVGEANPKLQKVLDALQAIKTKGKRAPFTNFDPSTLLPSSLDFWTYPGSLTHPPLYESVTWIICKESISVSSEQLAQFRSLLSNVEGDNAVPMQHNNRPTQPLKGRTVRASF

Sequence of Carbonic anhydrase 4 (P22748 whole entry): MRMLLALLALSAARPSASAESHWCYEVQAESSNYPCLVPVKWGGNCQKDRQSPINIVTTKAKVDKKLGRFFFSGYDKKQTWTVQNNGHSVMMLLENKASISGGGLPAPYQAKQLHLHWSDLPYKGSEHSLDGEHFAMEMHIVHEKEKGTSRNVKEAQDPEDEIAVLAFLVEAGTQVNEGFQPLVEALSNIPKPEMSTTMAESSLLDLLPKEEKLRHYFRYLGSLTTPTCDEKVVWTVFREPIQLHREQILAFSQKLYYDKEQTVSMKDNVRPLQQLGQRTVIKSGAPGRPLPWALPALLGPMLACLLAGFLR

## NS(=O)(=O)c1ccc(N/C=C(\C(=O)c2ccc(Br)cc2)S(=O)(=O)c2ccccc2)cc1
[1]
  IC50: 20.4 µM
[2]
  Ki: 3.03 µM
[3]
  IC50: 62.7 µM

## NS(=O)(=O)c1ccc(N/C=C(\C(=O)c2ccc(Cl)cc2)S(=O)(=O)c2ccccc2)cc1
[1]
  IC50: 28 µM
[2]
  Ki: 3.01 µM
[3]
  IC50: 15.1 µM

## C/C(=N/NC(=O)c1ccc(S(N)(=O)=O)cc1)c1ccc(Cl)cc1
[1]
  IC50: 62.7 µM
[2]
  Ki: 0.319 µM
[3]
  IC50: 3.75 µM

## NS(=O)(=O)c1ccc(C(=O)N/N=C\c2ccc(Br)cc2)cc1
[1]
  IC50: 27.7 µM
[2]
  Ki: 2.21 µM
[3]
  IC50: 1.37 µM

## O=C(O)c1ccc(N/N=C(/CS(=O)(=O)c2ccccc2)c2ccc(Br)cc2)cc1
[4]
  Ki: > 100 µM
[5]
  Ki: > 100 µM
[2]
  Ki: > 100 µM
[6]
  Ki: > 100 µM

## NS(=O)(=O)c1ccc(C(=O)N/N=C(/CS(=O)(=O)c2ccccc2)c2ccccc2)cc1
[1]
  IC50: 84.8 µM
[2]
  Ki: 0.769 µM
[3]
  IC50: 10.7 µM

## NS(=O)(=O)c1ccc(C(=O)N/N=C(/CS(=O)(=O)c2ccccc2)c2ccc(Cl)cc2)cc1
[1]
  IC50: 25.6 µM
[2]
  Ki: 0.818 µM
[3]
  IC50: 57 µM

## NS(=O)(=O)c1ccc(N/N=C(\C(=O)c2ccccc2)S(=O)(=O)c2ccccc2)cc1
[1]
  IC50: 14.1 µM
[2]
  Ki: 1.61 µM
[3]
  IC50: 1.74 µM

## NS(=O)(=O)c1ccc(N/N=C(/CS(=O)(=O)c2ccccc2)c2ccccc2)cc1
[1]
  IC50: 46.1 µM
[2]
  Ki: 2.49 µM
[3]
  IC50: 3.97 µM

## NS(=O)(=O)c1ccc(C(=O)N/N=C\c2ccc(F)cc2)cc1
[1]
  IC50: 35.9 µM
[2]
  Ki: 2.37 µM
[3]
  IC50: 9.17 µM

## C/C(=N/NC(=O)c1ccc(S(N)(=O)=O)cc1)c1ccc(Br)cc1
[1]
  IC50: 37.6 µM
[2]
  Ki: 0.962 µM
[3]
  IC50: 2.29 µM

## NS(=O)(=O)c1ccc(C(=O)N/N=C(/CS(=O)(=O)c2ccccc2)c2ccc(F)cc2)cc1
[1]
  IC50: 63.7 µM
[2]
  Ki: 1.12 µM
[3]
  IC50: 0.62 µM

## NS(=O)(=O)c1ccc(N/N=C(/CS(=O)(=O)c2ccccc2)c2ccc(Cl)cc2)cc1
[1]
  IC50: 28.6 µM
[2]
  Ki: 2.91 µM
[3]
  IC50: 8.01 µM

## NS(=O)(=O)c1ccc(N/C=C(\C(=O)c2ccccc2)S(=O)(=O)c2ccccc2)cc1
[1]
  IC50: 17.9 µM
[2]
  Ki: 2.76 µM
[3]
  IC50: 3.44 µM

## C/C(=N/NC(=O)c1ccc(S(N)(=O)=O)cc1)c1ccc(F)cc1
[1]
  IC50: 22 µM
[2]
  Ki: 1.45 µM
[3]
  IC50: 31.9 µM

## O=C(O)c1ccc(N/C=C(\C(=O)c2ccc(Br)cc2)S(=O)(=O)c2ccccc2)cc1
[4]
  Ki: > 100 µM
[2]
  Ki: > 100 µM
[6]
  Ki: > 100 µM

## C/C(=N/NC(=O)c1ccc(S(N)(=O)=O)cc1)c1ccccc1
[1]
  IC50: 31.1 µM
[2]
  Ki: 0.322 µM
[3]
  IC50: 20.1 µM

## O=C(O)c1ccc(N/N=C(/CS(=O)(=O)c2ccccc2)c2ccccc2)cc1
[4]
  Ki: > 100 µM
[2]
  Ki: > 100 µM

## NS(=O)(=O)c1ccc(C(=O)N/N=C\c2ccc(Cl)cc2)cc1
[1]
  IC50: 82 µM
[2]
  Ki: 2.09 µM
[3]
  IC50: 36.7 µM

## NS(=O)(=O)c1ccc(C(=O)N/N=C(/CS(=O)(=O)c2ccccc2)c2ccc(Br)cc2)cc1
[1]
  IC50: 34.1 µM
[2]
  Ki: 0.289 µM
[3]
  IC50: 19.1 µM

## O=C(O)c1ccc(N/C=C(\C(=O)c2ccccc2)S(=O)(=O)c2ccccc2)cc1
[4]
  Ki: > 100 µM
[5]
  Ki: > 100 µM
[2]
  Ki: > 100 µM
[6]
  Ki: > 100 µM

## O=C(O)c1ccc(N/N=C(\C(=O)c2ccccc2)S(=O)(=O)c2ccccc2)cc1
[4]
  Ki: > 100 µM
[5]
  Ki: > 100 µM
[2]
  Ki: > 100 µM
[6]
  Ki: > 100 µM

## O=C(O)c1ccc(N/C=C(\C(=O)c2ccc(Cl)cc2)S(=O)(=O)c2ccccc2)cc1
[4]
  Ki: > 100 µM
[5]
  Ki: > 100 µM
[2]
  Ki: > 100 µM
[6]
  Ki: > 100 µM

## NS(=O)(=O)c1ccc(N/N=C(/CS(=O)(=O)c2ccccc2)c2ccc(Br)cc2)cc1
[1]
  IC50: 12.9 µM
[2]
  Ki: 0.909 µM
[3]
  IC50: 17.3 µM

## NS(=O)(=O)c1ccc(C(=O)N/N=C\c2ccccc2)cc1
[1]
  IC50: 39.4 µM
[2]
  Ki: 0.869 µM
[3]
  IC50: 14.9 µM

## O=C(O)c1ccc(N/N=C(/CS(=O)(=O)c2ccccc2)c2ccc(Cl)cc2)cc1
[2]
  Ki: > 100 µM
[6]
  Ki: > 100 µM

## O=c1[nH]cc(F)c(=O)[nH]1 [FLUOROURACIL]
[1]
  IC50: 17.2 µM
[3]
  IC50: 12.5 µM

Reference: ChEMBL document CHEMBL4842321, “Novel benzenesulfonamides aryl and arylsulfone conjugates adopting tail/dual tail approaches: Synthesis, carbonic anhydrase inhibitory activity and molecular modeling studies” (Eur J Med Chem, 2021)
